Laboratory results: US5661156A, “Rapamycin derivatives” (SmithKline Beecham Corporation, priority 1995, dated 1997)

Assays:
[1] = test system: Spleen cells from BDF1 female mice; experiment: Mitogenesis Assay for Immunosuppressive Activity (concanavalin A, 3H-thymidine); assay type: cell-based; settings: BDF1 mouse spleen cells, Concanavalin A 5 μg/ml, 72 hours, 3H-thimidine last 18 hours
Description: (§1) Mitogenesis Assay for Immunosuppressive Activity
Spleen cells from BDF1 female mice were established in RPMI with 10% fetal calf serum at 5×10^6 /mL. One hundred […] of this suspension (5×10^5 cells) were dispensed into 96-well round-bottomed microtiter plates (Linbro, Flow Laboratories). Concanavalin A (5 μg/ml)was added as the mitogenic stimulus, and the final volume in the microtiter wells was adjusted to 200 μL with RPMI. Cell cultures were incubated for 72 hours at 37° C. in a 5% CO2 atmosphere and pulsed with 0.5 μCi ^3 H-thymidine (specific activity […]) for the last 18 hours of the 72 hour culture. The cells were harvested on an automated multiple sample harvester and cell-associated radioactivity counted in a Beckman liquid scintillation counter. The results are expressed as the mean values derived from quadruplicate measurements. Cell viability was determined by trypan blue exclusion after 72 hours of incubation. Compounds to be tested were added to the microtiter plates at the appropriate dilutions prior to the addition of cells.

Saccharomyces cerevisiae = experiment: Assay for Antifungal Activity (zones of inhibition on agar); assay type: cell-based; settings: YPD agar wells, 48 hours
Description: Assay for Antifungal Activity
Yeast organism (Saccharomyces cerevisiae) in logarithmic growth were plated on complete agar medium (YPD). Compounds dissolved in an appropriate aqueous or organic solvent were placed in wells punched in the agar. Plates were incubated for 48 hours and zones of inhibition were measured.
as §1

| Molecule | IC50 [1] | Yeast IC12 (Saccharomyces cerevisiae) |
| --- | --- | --- |
| 14-Desoxo-13-Methoxy-Rapamycin | 1000 nM | 52 ng/mL |
| CO[C@H]1CCC[C@@H](C[C@@H](C)[C@@H]2CC(=O)[C@H](C)/C=C(\C)[C@@H](O)[C@@H](OC)C(=O)[C@H](C)C[C@H](C)/C=C/C=C/C=C(\C)[C@@H](OC)C[C@@H]3CC[C@@H](C)[C@@](O)(O3)C(=O)C(=O)N3CCCC[C@H]3C(=O)O2)C1 [Example 1, 43-Deshydroxyrapamycin] | 0.5 nM | – |
| CO[C@H]1C[C@@H]2CC[C@@H](C)[C@](O)(CC(=O)N3CCCC[C@H]3C(=O)O[C@H]([C@H](C)C[C@@H]3CC[C@@H](O)[C@H](OC)C3)CC(=O)[C@H](C)/C=C(\C)[C@@H](O)[C@@H](OC)C(=O)[C@H](C)C[C@H](C)/C=C/C=C/C=C/1C)O2 [Example 3, 14-Deoxorapamycin] | 15 nM | – |
